Test results published in patent US5843916A, “Cyclic amp analogues, individually and in pairs, to inhibit neoplastic cell growth” (priority 1994, dated 1998).
Entries after “also recorded” stand apart in the source; their conditions may differ. Like-named read-outs stand apart in the source and are kept apart here.

Tests used:
[1] = molecular target: T1, RI, regulatory subunit of cAMP-dependent protein kinase type I (Oryctolagus cuniculus, UniProt G1TDN4); experiment: Binding affinity for RI (Table 14)
T1 construct: from tissue
T1 sequence (G1TDN4 1-381): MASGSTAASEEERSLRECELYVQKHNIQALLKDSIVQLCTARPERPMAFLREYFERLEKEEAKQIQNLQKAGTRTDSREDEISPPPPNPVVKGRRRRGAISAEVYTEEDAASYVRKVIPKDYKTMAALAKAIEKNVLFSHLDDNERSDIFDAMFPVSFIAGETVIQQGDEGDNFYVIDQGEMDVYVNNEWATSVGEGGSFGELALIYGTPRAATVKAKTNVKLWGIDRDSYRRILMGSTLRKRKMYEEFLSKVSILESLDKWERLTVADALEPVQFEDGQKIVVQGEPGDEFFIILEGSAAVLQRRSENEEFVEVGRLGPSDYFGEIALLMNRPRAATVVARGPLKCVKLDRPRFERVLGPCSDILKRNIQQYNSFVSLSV
Procedure: (§1) RI and RII are the regulatory subunits of cAMP-dependent protein
(§2) kinase type I and type II, respectively. Site A (Site 2) and Site B
(§3) (RI and RII): the affinities of analogues for Site A and Site B were
(§4) determined by the measurement of kinetic constants (inhibition constant,
(§5) Ki), and the values are expressed as the relative affinity Ki
(§6) (analogue), i.e., the ratio between the apparent inhibition constant for
(§7) cAMP and the analogue, as described in Ogreid et al., Eur. J. Biochem.

[2] = test system: RI, regulatory subunit of cAMP-dependent protein kinase type I; experiment: Binding affinity for RI (Table 14); details: compared with 8-Cl-cAMP
Procedure: as §1, §2, §3, §4, §5, §6, §7

[3] = test system: HL-60 human leukemia cells; experiment: Growth inhibition of HL-60 leukemia cells (Example 3, Table 16); type: cell-based; details: for IC50: Homo sapiens; for fold less potent than 8-Cl-cAMP: growth inhibition HL-60, day 6
Procedure: HL-60 leukemic cells were obtained from the American Type Culture Collection (Rockville, Md.) and were grown in suspension culture in RPMI 1640 supplemented with 10% heat-inactivated fetal bovine serum, streptomycin (500 μg/ml), penicillin (50 units/ml), and glutamine (1 mM) (Gibco, Grand Island, N.Y.).
Cell counts were performed at desired times on a Coulter Counter.
The IC50 values were determined from the dose-
represent an average value obtained for each analogue
from two or more separate experiments carried out from 3
days or 6 days. Initial cell number, 1 × 10^5 /dish.
Typical numbers of untreated control cells at day 3 and
viability in treated and control cells.

[4] = test system: HL-60 leukemia cells; experiment: Surface antigen expression of HL-60 cells (Example 5); type: cell-based, human; details: Homo sapiens, HL-60, 72 h
Procedure: (§8) Briefly, cells were fixed in 70% ethanol and stored at 4° C. before analysis. Nuclear DNA was stained with propidium iodide, 50 μg/ml in phosphate-buffered saline (pH 7.4), for 30 minutes at room temperature. RNase was added to avoid double-helix RNA staining. The DNA content of cells was analyzed by a FACScan flow cytometer coupled with a Hewlett-Packard computer. Cell cycle data analysis was performed by a Cell-FIT program according to the method of Dean (Cell Tissue Kinet. 13: 299-308 (1980)) (Becton Dickinson Immunocytometry Systems). Pulse area versus pulse width gating was performed to exclude doublets from the G2 -M region. For each sample, 20,000 events were stored in list mode. Cell surface antigen analysis was performed by flow cytometry with FACScan using a panel of monoclonal antibodies reactive with either monocytic or myeloid cells.
The effect of Rp- and Sp-8-Cl-cAMPS on the expression of differentiation markers in HL-60 cells was examined to determine if the growth-arrested HL-60 cells are more differentiated than untreated cells. […] For each sample, 2×10^4 cells were analyzed. Cell surface antigen analysis was performed by flow cytometry with FACScan. Cell gating was performed using forward and side scatter.

[5] = test system: LS-174T human colon carcinoma cells; experiment: Growth inhibition of LS-174T cells (Example 4, Table 18); type: cell-based
Procedure: LS-174T human colon carcinoma cells were obtained from the National Cancer Institute, Division of Cancer Treatment, Bethesda, Md., and were grown in Eagle's minimum essential medium supplemented with 10% heat-inactivated fetal bovine serum, Eagle's minimum essential medium nonessential amino acids, 20 mM 4-(2-hydroxyethyl)-1-piperazineethanesulfonic acid, 2mM glutamine, and penicillin-streptomycin (Gibco). The medium was changed every 48 hours.
LS-174T cells were seeded at a density of 2×10^5 / 60 mm dish. […] At desired times, cell counts were performed in duplicate on a Coulter Counter after harvesting cells with gentle trypsinization.
The percentage growth inhibition values shown at 10
and 50 μM analogue concentrations were determined from
the dose-response curve experiments like those shown in
FIG. 1 and represent an average value obtained for each
analogue from two or more separate experiments. Sp-6-SET-

[6] = molecular target: T2, Protein kinase type I (cAKI) (Oryctolagus cuniculus, UniProt G1TDN4); experiment: Protein kinase activation (Table 15); type: biochemical, rabbit (skeletal muscle); details: half-maximum activation; U. M.: unmeasurable
T2 construct: prepared from rabbit skeletal muscle and bovine heart; from tissue; host or cells: rabbit skeletal muscle
T2 sequence (G1TDN4 1-381): as above
Procedure: (§9) ATP to Kemptide as described by Ogreid et al., Eur. J. Biochem. 150: 219-227 (1985).
(§10) Protein kinases types I (cAKI) and II (cAKII) were
(§11) prepared from rabbit skeletal muscle and bovine heart,
(§12) respectively, as described in D.o slashed.skeland et al. (J. Biol.
(§13) of the protein kinase in Ogreid et al. (Eur. J. Biochem.

[7] = molecular target: T3, RII, regulatory subunit of cAMP-dependent protein kinase type II (Bos taurus, UniProt P00515); experiment: Binding affinity for RII (Table 14)
T3 construct: from tissue
T3 sequence (P00515 whole entry): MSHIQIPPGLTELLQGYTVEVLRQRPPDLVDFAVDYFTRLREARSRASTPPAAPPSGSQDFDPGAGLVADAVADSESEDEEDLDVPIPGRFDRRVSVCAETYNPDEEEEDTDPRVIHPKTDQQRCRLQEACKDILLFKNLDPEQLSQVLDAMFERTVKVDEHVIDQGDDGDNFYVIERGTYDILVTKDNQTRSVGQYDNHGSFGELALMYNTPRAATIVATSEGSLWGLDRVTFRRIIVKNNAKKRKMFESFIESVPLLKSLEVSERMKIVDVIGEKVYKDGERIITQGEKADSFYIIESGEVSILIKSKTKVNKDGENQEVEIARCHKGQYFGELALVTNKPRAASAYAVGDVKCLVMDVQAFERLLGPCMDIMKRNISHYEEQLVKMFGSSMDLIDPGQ
Procedure: as §1, §2, §3, §4, §5, §6, §7

[8] = molecular target: T4, Protein kinase type II (cAKII) (Bos taurus, UniProt P00515); experiment: Protein kinase activation (Table 15); type: biochemical, bovine (heart); details: half-maximum activation; U. M.: unmeasurable
T4 construct: prepared from rabbit skeletal muscle and bovine heart; from tissue; host or cells: bovine heart
T4 sequence (P00515 2-401 limits assumed): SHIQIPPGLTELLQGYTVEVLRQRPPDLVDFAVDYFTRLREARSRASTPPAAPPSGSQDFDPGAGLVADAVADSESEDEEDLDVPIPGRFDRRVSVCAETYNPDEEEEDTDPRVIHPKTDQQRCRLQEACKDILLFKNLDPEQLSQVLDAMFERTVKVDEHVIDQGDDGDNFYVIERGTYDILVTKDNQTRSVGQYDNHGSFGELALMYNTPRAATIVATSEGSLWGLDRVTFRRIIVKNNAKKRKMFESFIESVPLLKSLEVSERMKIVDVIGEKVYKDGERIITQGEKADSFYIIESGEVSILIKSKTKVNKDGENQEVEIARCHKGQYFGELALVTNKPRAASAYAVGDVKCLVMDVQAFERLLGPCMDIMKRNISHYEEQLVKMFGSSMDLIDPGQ
Procedure: as §9, §10, §11, §12, §13

[9] = test system: HL-60 Cells; experiment: Cell cycle kinetics of HL-60 cells (Table 17); type: cell-based, human; details: for % G2 M: control 8.3; for % G0-G1: control 45.7; for % S: control 46
Procedure: as §8

[10] = test system: LS-174T human colon carcinoma cells; experiment: Additive growth inhibition with 8-Cl-cAMP (Table 19); type: cell-based
Procedure: The medium was changed every 48 hours.
At desired times, cell counts were performed in duplicate on a Coulter Counter after harvesting cells with gentle trypsinization.
The analogues were added at 24

[11] = test system: cAMP-phosphodiesterase (PDE); details: no test described; cited from earlier work

## Nc1ncnc2c1nc(Cl)n2[C@@H]1O[C@@H]2CO[P@@](O)(=S)O[C@H]2[C@H]1O [Rp-8-Cl-cAMPS, Rp-(equatorial exocyclic sulfursubstitution) 8-chloro-adenosine 3': 5'-monophosphorothioate]
[1]; Site A (Site 2)
  relative affinity Ki (cAMP)/Ki (analogue), RI Site A: 0.0079
[1]; Site B (Site 1)
  relative affinity Ki (cAMP)/Ki (analogue), RI Site B: 0.0042
[1]; vs cyclophosphate
  decrease in affinity for Site A of RI vs corresponding cyclophosphate: 340 fold
  decrease in affinity for Site B of RI vs corresponding cyclophosphate: 480 fold
[2]
  affinity for cAMP receptor protein / protein kinase: reduced affinity for the cAMP receptor protein
[3]; HL-60
  growth inhibitory potency: less inhibitory than 8-Cl-cAMP but was more potent than Sp-8-Cl-cAMPS
[3]; HL-60, 72 h, read-out: Growth inhibition (IC50), Day 3
  IC50: 16 µM
[3]; HL-60, 144 h, read-out: Growth inhibition (IC50), Day 6
  IC50: 3 µM
[3]
  fold less potent than 8-Cl-cAMP: about 10 fold
[3]; listed as Rp-phosphorothioate of 8-Cl-cAMP
  fold less potent than 8-Cl-cAMP: 10 fold
[3]; vs Sp-8-Cl-cAMPS
  growth inhibitory effect greater than that of Sp-8-Cl-cAMPS: 3 fold
[4]; read-out: cell viability
  viability at 50 µM: 90%
[4]; read-out: increase of HLA-DR over control
  fold induction at 50 µM: 2
[4]; read-out: increase of Leu-15 over control
  fold induction at 50 µM: 3
[5]; Homo sapiens, LS174T
  inhibition at 10 µM: 48%
  inhibition at 50 µM: 70%
[5]; LS-174T
  growth inhibitory potency: greatest inhibition of cell growth
[6]
  Activation Constant (Ka), cAKI: U. M.
[7]; Site A (Site 2)
  relative affinity Ki (cAMP)/Ki (analogue), RII Site A: 0.00028
[7]; Site B (Site 1)
  relative affinity Ki (cAMP)/Ki (analogue), RII Site B: 0.44
[7]; vs cyclophosphate
  decrease in affinity for Site A of RII vs corresponding cyclophosphate: 180 fold
  decrease in affinity for Site B of RII vs corresponding cyclophosphate: 10 fold
[8]
  Activation Constant (Ka), cAKII: U. M.
[9]; 10 μM, 96 hours
  % G2 M: 9.8%
  % G0-G1: 43.5%
  % S: 46.7%
[9]; 50 μM, 96 hours
  % G2 M: 9.0%
  % G0-G1: 41.6%
  % S: 49.4%
[9]; 100 μM, 96 hours
  % G2 M: 10.9%
  % G0-G1: 37.9%
  % S: 51.2%
[9]; 100 μM, 96 hours, footnote b
  toxic effect: Toxic effect
[9]; HL-60, 96 hours in Table 17
  cell cycle phase distribution: not appreciably different; also recorded: did not bring about any change in cell cycle phase
[10]; Homo sapiens, LS174T, 96 h, 5 μM, 4 days
  inhibition at 5 µM: 34%
[10]; Homo sapiens, LS174T, 96 h, 10 μM, 4 days
  inhibition at 10 µM: 48%
[10]; Homo sapiens, LS174T, 96 h, 200 μM, 4 days
  inhibition at 200 µM: 80%
[10]; with 8-Cl-cAMP
  effect on growth-inhibitory effect of 8-Cl-cAMP: additive effect
[11]
  hydrolysis by phosphodiesterase: resistant to hydrolysis
